Data as given in patent US20250290117A1, “MOLECULAR PHENOTYPIC ANTIMICROBIAL SUSCEPTIBILITY TESTING” (priority 2024, published 2025).

Experiments:
[1] = system: Staphylococcus epidermidis; assay: Traditional culture-based antimicrobial susceptibility test; assay type: cell-based
Source text: Table 1 illustrates the results of an example antimicrobial agent susceptibility test of the current application versus a traditional culture-based antimicrobial agent susceptibility test for Staphylococcus epidermidis. This specimen underwent extraction or DNA purification prior to PCR. The results of the test of the current application are similar to the results from the traditional test, with the results from the test of the current application being reportable considerably earlier than the test of the traditional test due no pathogen isolation requirement and due to less incubation time being required for the test of the current application. Result Reporting to Healthcare Providers. The results from the antimicrobial exposure are reported to the ordering healthcare provider. This information can be utilized by the healthcare provider when selecting an antimicrobial regimen for their individual patient based on these individual specimen results and patient specific factors. […] The current standard of care for antimicrobial susceptibility testing involves the growth, isolation, and exposure of pathogens to antimicrobials. This traditional culture and sensitivity process can take multiple days to obtain results, limiting the ability of healthcare providers to receive timely results to make actionable changes in patient care or management. Healthcare providers desire a method to obtain antimicrobial susceptibility results with quicker turn-around-time. This application discloses a molecular-based phenotypic antimicrobial susceptibility method which involves pathogen exposure to a panel of antimicrobial agents at their specified minimum inhibitory concentration breakpoints for sensitivity. This method allows for more timely antimicrobial susceptibility results.

[2] = system: P. aeruginosa; assay: Molecular phenotypic antimicrobial susceptibility test with direct PCR (no extraction DNA purification step); assay type: cell-based, Pseudomonas aeruginosa; conditions: for Ct at Sensitive Breakpoint: P. aeruginosa isolate MRSN1938, Ct at control (average) 12.031; for Molecular Antimicrobial Susceptibility Result: P. aeruginosa isolate MRSN1938, at sensitive breakpoint
Procedure: Detection of Molecular Phenotypic Antimicrobial Susceptibility. Disclosed herein are the methods for the detection of phenotypic antimicrobial susceptibility via molecular methods. The present invention describes how a specimen 100 with a known microbial load is incubated and then exposed to a panel of antimicrobial agents to determine sensitivity (prevention of growth) or resistance (allowance of growth) to the specific antimicrobial agents tested utilizing molecular methods.
Sample Collection. Specimens 100 are collected from patients using sterile collection processes that are employed in routine clinical care. Specimens are transported to the testing facility in boric acid preservative. Specimens 100 are subsequently divided into a first sample 104 and a second sample 108.
Preparation of the Specimens for Testing. The specimens 100 are put through a pathogen identification process using PCR technology (e.g., using the first sample 104). The process for pathogen isolation includes steps of harvesting the pathogen (e.g., via centrifugation), isolating pathogen DNA via a DNA isolation and/or purification kit, and performing PCR on the pathogen DNA via PCR components (e.g., primers, enzymes, buffers) as would be known to the skilled artisan. Simultaneously, an additional aliquot of the same specimen (e.g., the second sample 108) is placed with liquid culture media and incubated for 4-6 hours. This aliquot is used for antimicrobial susceptibility testing if indicated based on the pathogen detection results. After pathogen identification is completed and if more than 10,000 cells/mL of bacteria (e.g., eligible bacteria) are detected in the source specimen, the second sample 108 then enters the antimicrobial susceptibility phase of testing. Specimens 100 with lower pathogen loads could also be utilized in the antibiotic susceptibility phase of testing with or without a longer incubation period.
Preparation of Antimicrobial Susceptibility Testing Plates. Antimicrobial solutions are prepared at known concentrations. The specific antimicrobials and their concentrations are selected based on the pathogen of interest and the described antimicrobial resistance breakpoints for that specimen pathogen and antimicrobial combination. These antimicrobials have been selected based on those commonly utilized by healthcare providers in routine clinical care for the specific type of suspected infection. The number and types of antimicrobials utilized can be customized based on the infection source, pathogen detected, patient-specific factors such as allergies or other health conditions (e.g., chronic kidney disease or concurrent medication use), or healthcare provider preferences such as antimicrobial availability or cost.
The antimicrobial solutions are prepared in liquid culture media (such as Muller Hinton Broth) to achieve the desired antimicrobial concentration and are then stored at −80° C. until use. For a given specimen, each antimicrobial is tested at a single or multiple antimicrobial concentration(s) which is its established breakpoints for sensitivity. The antimicrobial solutions are prepared and plated out for each specific pathogen. This allows ease of use on the day of testing after defrosting the plate 112. Table 1, which illustrates the results of molecular phenotypic antimicrobial susceptibility testing when more than one organism is present in the source specimen, provides an example of an antimicrobial plate 112 prepared for this purpose. Of note, control wells containing only culture media are present on all plates 112. This allows for evaluation of pathogen load when no antimicrobial is present.
Specimen Exposure to Antimicrobial Agents. The 1 mL aliquot of the specimen 100 previously mixed with culture media and incubated is obtained. Using optical density measurements as a guide, the specimen 100 is diluted to 0.5 McFarland. […]

Molecule | Traditional Culture Result ([1]; S. epidermidis isolate 1) | Traditional Culture Result ([1]; S. epidermidis isolate 2) | Traditional Culture Result ([1]; S. epidermidis isolate 3) | Traditional Culture Result ([1]; S. epidermidis isolate 4) | Traditional Culture Result ([1]; S. epidermidis isolate 5) | Ct at Sensitive Breakpoint [2] | Molecular Antimicrobial Susceptibility Result [2]
CO/N=C(\C(=O)N[C@@H]1C(=O)N2C(C(=O)[O-])=C(C[N+]3(C)CCCC3)CS[C@H]12)c1csc(N)n1 [Cefepime] | Resistant | Resistant | Resistant | Resistant | Resistant | 13.373 | Sensitive (Antimicrobial wells with pathogen load detected below the control wells (typically >2 cycle thresholds later) may be reported as Sensitive)
O=C(O)c1cn(C2CC2)c2cc(N3CCNCC3)c(F)cc2c1=O [Ciprofloxacin] | – | – | – | – | – | 12.239 | Resistant
C[C@H]1COc2c(N3CCN(C)CC3)c(F)cc3c(=O)c(C(=O)O)cn1c23 [Levofloxacin] | – | – | – | – | – | 12.853 | Resistant
C[C@@H](O)[C@H]1C(=O)N2C(C(=O)O)=C(S[C@@H]3CN[C@H](C(=O)N(C)C)C3)[C@H](C)[C@H]12 [Meropenem] | – | – | – | – | – | 12.404 | Resistant
CN[C@H](CC(C)C)C(=O)N[C@H]1C(=O)N[C@@H](CC(N)=O)C(=O)N[C@H]2C(=O)N[C@H]3C(=O)N[C@H](C(=O)N[C@H](C(=O)O)c4cc(O)cc(O)c4-c4cc3ccc4O)[C@H](O)c3ccc(c(Cl)c3)Oc3cc2cc(c3O[C@@H]2O[C@H](CO)[C@@H](O)[C@H](O)[C@H]2O[C@H]2C[C@](C)(N)[C@H](O)[C@H](C)O2)Oc2ccc(cc2Cl)[C@H]1O [Vancomycin] | Sensitive | Sensitive | Sensitive | Sensitive | Sensitive | – | –
Piperacillin/Tazobactam | – | – | – | – | – | 13.375 | Sensitive (Antimicrobial wells with pathogen load detected below the control wells (typically >2 cycle thresholds later) may be reported as Sensitive)
Trimethoprim/Sulfamethoxazole [TMP/SMX] | Resistant | Resistant | Resistant | Resistant | Resistant | – | –
